Laboratory results as given in US20260262643A1, “HERBICIDAL BENZOXAZINES” (FMC CORPORATION, priority 2022, published 2026).

How the values were obtained:
green foxtail [1] = test: Test C preemergence; format: in vivo, Setaria viridis; settings: 0 to 100 scale (0 no effect, 100 complete control); for Plant response rating, Foxtail, Green: Preemergence, 500 g ai/ha, visual rating after 10 days; for Foxtail, Green plant response rating: Test C, preemergence, 125 g ai/ha
Procedure, shortened: (§1)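 Greenhouse herbicide screen, 10-day duration. Test chemicals in solvent/surfactant blend were sprayed onto soil at sowing (pre) or onto 2–10 cm seedlings at one to two leaves (post); injury scored visually against controls, 0 no effect to 100 complete control.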

ryegrass, Italian [2] = test: Test C postemergence; format: in vivo, Lolium multiflorum; settings: 10 days
Procedure, shortened: as §1

barnyardgrass [3] = test: Test D flooded paddy test; format: in vivo, Echinochloa crus-galli; settings: 250 g ai/ha, applied to paddy water, visual rating after 13 to 14 days, scale 0 to 100 (0 no effect, 100 complete control)
Procedure, shortened: (§2)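 Compounds go straight into paddy water over 2-leaf plants in pots flooded to 3 cm. Greenhouse holding lasts 13 to 14 days. Injury is scored by eye against controls from 0 (none) to 100 (complete control).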

kochia [4] = test: Test C postemergence; format: in vivo, Bassia scoparia; settings: 10 days
Procedure, shortened: as §1

rice = test: Test D flooded paddy test; format: in vivo, Oryza sativa; settings: 250 g ai/ha, applied to paddy water, visual rating after 13 to 14 days, scale 0 to 100 (0 no effect, 100 complete control)
Procedure, shortened: as §2

barnyardgrass [5] = test: Test C postemergence; format: in vivo, Echinochloa crusgalli; settings: 10 days
Procedure, shortened: as §1

blackgrass [6] = test: Test C postemergence; format: in vivo, Alopecurus myosuroides; settings: 10 days
Procedure, shortened: as §1

corn [7] = test: Test C postemergence; format: in vivo, Zea mays; settings: 10 days
Procedure, shortened: as §1

barnyardgrass [8] = test: Test C preemergence; format: in vivo, Echinochloa crusgalli; settings: 0 to 100 scale (0 no effect, 100 complete control); for Plant response rating, Barnyardgrass: Preemergence, 500 g ai/ha, visual rating after 10 days; for Barnyardgrass plant response rating: Test C, preemergence, 125 g ai/ha
Procedure, shortened: as §1

oat, wild [9] = test: Test C postemergence; format: in vivo, Avena fatua; settings: 10 days
Procedure, shortened: as §1

wheat [10] = test: Test C preemergence; format: in vivo, Triticum aestivum; settings: 0 to 100 scale (0 no effect, 100 complete control); for Plant response rating, Wheat: Preemergence, 500 g ai/ha, visual rating after 10 days; for Wheat plant response rating: Test C, preemergence, 125 g ai/ha
Procedure, shortened: as §1

ragweed [11] = test: Test C postemergence; format: in vivo, Ambrosia artemisiifolia; settings: 10 days
Procedure, shortened: as §1

sedge, umbrella = test: Test D flooded paddy test; format: in vivo, Cyperus difformis; settings: 250 g ai/ha, applied to paddy water, visual rating after 13 to 14 days, scale 0 to 100 (0 no effect, 100 complete control)
Procedure, shortened: as §2

soybean [12] = test: Test C postemergence; format: in vivo, Glycine max; settings: 10 days
Procedure, shortened: as §1

corn [13] = test: Test C preemergence; format: in vivo, Zea mays; settings: 0 to 100 scale (0 no effect, 100 complete control); for Plant response rating, Corn: Preemergence, 500 g ai/ha, visual rating after 10 days; for Corn plant response rating: Test C, preemergence, 125 g ai/ha
Procedure, shortened: as §1

ragweed [14] = test: Test C preemergence; format: in vivo, Ambrosia artemisiifolia; settings: 0 to 100 scale (0 no effect, 100 complete control); for Plant response rating, Ragweed: Preemergence, 500 g ai/ha, visual rating after 10 days; for Ragweed plant response rating: Test C, preemergence, 125 g ai/ha
Procedure, shortened: as §1

ryegrass, Italian [15] = test: Test C preemergence; format: in vivo, Lolium multiflorum; settings: 0 to 100 scale (0 no effect, 100 complete control); for Plant response rating, Ryegrass, Italian: Preemergence, 500 g ai/ha, visual rating after 10 days; for Ryegrass, Italian plant response rating: Test C, preemergence, 125 g ai/ha
Procedure, shortened: as §1

green foxtail [16] = test: Test C postemergence; format: in vivo, Setaria viridis; settings: 10 days
Procedure, shortened: as §1

blackgrass [17] = test: Test C preemergence; format: in vivo, Alopecurus myosuroides; settings: 0 to 100 scale (0 no effect, 100 complete control); for Plant response rating, Blackgrass: Preemergence, 500 g ai/ha, visual rating after 10 days; for Blackgrass plant response rating: Test C, preemergence, 125 g ai/ha
Procedure, shortened: as §1

pigweed, palmer [18] = test: Test C postemergence; format: in vivo, Amaranthus palmeri; settings: 10 days
Procedure, shortened: as §1

soybean [19] = test: Test C preemergence; format: in vivo, Glycine max; settings: 0 to 100 scale (0 no effect, 100 complete control); for Plant response rating, Soybean: Preemergence, 500 g ai/ha, visual rating after 10 days; for Soybean plant response rating: Test C, preemergence, 125 g ai/ha
Procedure, shortened: as §1

kochia [20] = test: Test C preemergence; format: in vivo, Bassia scoparia; settings: 0 to 100 scale (0 no effect, 100 complete control); for Plant response rating, Kochia: Preemergence, 500 g ai/ha, visual rating after 10 days; for Kochia plant response rating: Test C, preemergence, 125 g ai/ha
Procedure, shortened: as §1

ducksalad = test: Test D flooded paddy test; format: in vivo, Heteranthera limosa; settings: 250 g ai/ha, applied to paddy water, visual rating after 13 to 14 days, scale 0 to 100 (0 no effect, 100 complete control)
Procedure, shortened: as §2

horseweed = test: Test C postemergence; format: in vivo, Erigeron canadensis; settings: 10 days
Procedure, shortened: as §1

wheat [21] = test: Test C postemergence; format: in vivo, Triticum aestivum; settings: 10 days
Procedure, shortened: as §1

oat, wild [22] = test: Test C preemergence; format: in vivo, Avena fatua; settings: 0 to 100 scale (0 no effect, 100 complete control); for Plant response rating, Oat, Wild: Preemergence, 500 g ai/ha, visual rating after 10 days; for Oat, Wild plant response rating: Test C, preemergence, 125 g ai/ha
Procedure, shortened: as §1

pigweed, palmer [23] = test: Test C preemergence; format: in vivo, Amaranthus palmeri; settings: 0 to 100 scale (0 no effect, 100 complete control); for Plant response rating, Pigweed, Palmer: Preemergence, 500 g ai/ha, visual rating after 10 days; for Pigweed, Palmer plant response rating: Test C, preemergence, 125 g ai/ha
Procedure, shortened: as §1

[24] = 125 g ai/ha, postemergence, 0 to 100 scale, 0 no effect, 100 complete control
[25] = Postemergence, 500 g ai/ha, visual 0 to 100 scale (0 no effect, 100 complete control)

COc1cc(C(=O)N2C[C@H](C)Oc3c(Cl)cccc32)cc(-n2cnc(C3CC3)n2)c1 [Compound 216]
Plant response rating, Foxtail, Green (green foxtail [1]): 100 | Foxtail, Green plant response rating (green foxtail [1]): 100 | Plant response rating, Ryegrass, Italian (ryegrass, Italian [2]; [24]): 20 | Plant response rating, Ryegrass, Italian (ryegrass, Italian [2]; [25]): 60 | Plant response rating, Barnyardgrass (Flood) (barnyardgrass [3]): 40 | Plant response rating, Kochia (kochia [4]; [24]): 80 | Plant response rating, Kochia (kochia [4]; [25]): 90 | Plant response rating, Rice (Flood) (rice): 10 | Plant response rating, Barnyardgrass (barnyardgrass [5]; [24]): 10 | Plant response rating, Barnyardgrass (barnyardgrass [5]; [25]): 60 | Plant response rating, Blackgrass (blackgrass [6]; [24]): 30 | Plant response rating, Blackgrass (blackgrass [6]; [25]): 100 | Plant response rating, Corn (corn [7]; [24]): 10 | Plant response rating, Corn (corn [7]; [25]): 20 | Plant response rating, Barnyardgrass (barnyardgrass [8]): 90 | Barnyardgrass plant response rating (barnyardgrass [8]): 40 | Plant response rating, Oat, Wild (oat, wild [9]; [24]): 20 | Plant response rating, Oat, Wild (oat, wild [9]; [25]): 20 | Plant response rating, Wheat (wheat [10]): 20 | Wheat plant response rating (wheat [10]): 0 | Plant response rating, Ragweed (ragweed [11]; [24]): 60 | Plant response rating, Ragweed (ragweed [11]; [25]): 80 | Plant response rating, Sedge, Umbrella (Flood) (sedge, umbrella): 95 | Plant response rating, Soybean (soybean [12]; [24]): 100 | Plant response rating, Soybean (soybean [12]; [25]): 100 | Plant response rating, Corn (corn [13]): 30 | Corn plant response rating (corn [13]): 0 | Plant response rating, Ragweed (ragweed [14]): 40 | Ragweed plant response rating (ragweed [14]): 0 | Plant response rating, Ryegrass, Italian (ryegrass, Italian [15]): 90 | Ryegrass, Italian plant response rating (ryegrass, Italian [15]): 80 | Plant response rating, Foxtail, Green (green foxtail [16]; [24]): 70 | Plant response rating, Foxtail, Green (green foxtail [16]; [25]): 90 | Plant response rating, Blackgrass (blackgrass [17]): 90 | Blackgrass plant response rating (blackgrass [17]): 20 | Plant response rating, Pigweed, Palmer (pigweed, palmer [18]; [24]): 80 | Plant response rating, Pigweed, Palmer (pigweed, palmer [18]; [25]): 90 | Plant response rating, Soybean (soybean [19]): 100 | Soybean plant response rating (soybean [19]): 50 | Plant response rating, Kochia (kochia [20]): 100 | Kochia plant response rating (kochia [20]): 70 | Plant response rating, Ducksalad (Flood) (ducksalad): 100 | Plant response rating, Horseweed (horseweed; [24]): 0 | Plant response rating, Horseweed (horseweed; [25]): 50 | Plant response rating, Wheat (wheat [21]; [24]): 20 | Plant response rating, Wheat (wheat [21]; [25]): 30 | Plant response rating, Oat, Wild (oat, wild [22]): 40 | Oat, Wild plant response rating (oat, wild [22]): 0 | Plant response rating, Pigweed, Palmer (pigweed, palmer [23]): 100 | Pigweed, Palmer plant response rating (pigweed, palmer [23]): 100

CC(C)c1ncn(-c2cc3c(c(C(=O)N4C[C@H](C)Oc5c(Cl)cccc54)c2)OCCO3)n1 [Compound 217, [(2S)-8-chloro-2-methyl-2,3-dihydro-1,4-benzoxazin-4-yl]-[7-(3-isopropyl-1,2,4-triazol-1-yl)-2,3-dihydro-1,4-benzodioxin-5-yl]methanone]
Plant response rating, Foxtail, Green (green foxtail [1]): 100 | Foxtail, Green plant response rating (green foxtail [1]): 100 | Plant response rating, Ryegrass, Italian (ryegrass, Italian [2]; [24]): 70 | Plant response rating, Ryegrass, Italian (ryegrass, Italian [2]; [25]): 90 | Plant response rating, Barnyardgrass (Flood) (barnyardgrass [3]): 50 | Plant response rating, Kochia (kochia [4]; [24]): 80 | Plant response rating, Kochia (kochia [4]; [25]): 90 | Plant response rating, Rice (Flood) (rice): 20 | Plant response rating, Barnyardgrass (barnyardgrass [5]; [24]): 40 | Plant response rating, Barnyardgrass (barnyardgrass [5]; [25]): 80 | pest or weed control at 125 g/ha (blackgrass [6]; Alopecurus myosuroides, post-emergence, 240 h, 125 g ai/ha, postemergence, 0 to 100 scale (0 no effect, 100 complete control), read-out: Plant response rating, Blackgrass): 90% | pest or weed control at 500 g/ha (blackgrass [6]; Alopecurus myosuroides, post-emergence, 240 h, Postemergence, 500 g ai/ha, visual 0 to 100 scale (0 no effect, 100 complete control), read-out: Plant response rating, Blackgrass): 100% | Corn plant response rating (crop injury, 0 = no effect, 100 = complete kill) at 125 g/ha (corn [7]; Zea mays, post-emergence, 240 h, 125 g ai/ha, postemergence, 0 to 100 scale (0 no effect, 100 complete control)): 70% | Corn plant response rating (crop injury, 0 = no effect, 100 = complete kill) at 500 g/ha (corn [7]; Zea mays, post-emergence, 240 h, Postemergence, 500 g ai/ha, visual 0 to 100 scale (0 no effect, 100 complete control)): 70% | Plant response rating, Barnyardgrass (barnyardgrass [8]): 100 | Barnyardgrass plant response rating (barnyardgrass [8]): 90 | Plant response rating, Oat, Wild (oat, wild [9]; [24]): 20 | Plant response rating, Oat, Wild (oat, wild [9]; [25]): 40 | Plant response rating, Wheat (wheat [10]): 90 | Wheat plant response rating (wheat [10]): 30 | Plant response rating, Ragweed (ragweed [11]; [24]): 90 | Plant response rating, Ragweed (ragweed [11]; [25]): 100 | Plant response rating, Sedge, Umbrella (Flood) (sedge, umbrella): 98 | Plant response rating, Soybean (soybean [12]; [24]): 100 | Plant response rating, Soybean (soybean [12]; [25]): 100 | Plant response rating, Corn (corn [13]): 40 | Corn plant response rating (corn [13]): 30 | Plant response rating, Ragweed (ragweed [14]): 100 | Ragweed plant response rating (ragweed [14]): 70 | Plant response rating, Ryegrass, Italian (ryegrass, Italian [15]): 100 | Ryegrass, Italian plant response rating (ryegrass, Italian [15]): 90 | Plant response rating, Foxtail, Green (green foxtail [16]; [24]): 90 | Plant response rating, Foxtail, Green (green foxtail [16]; [25]): 90 | Plant response rating, Blackgrass (blackgrass [17]): 90 | Blackgrass plant response rating (blackgrass [17]): 60 | Plant response rating, Pigweed, Palmer (pigweed, palmer [18]; [24]): 100 | Plant response rating, Pigweed, Palmer (pigweed, palmer [18]; [25]): 100 | Plant response rating, Soybean (soybean [19]): 100 | Soybean plant response rating (soybean [19]): 70 | Plant response rating, Kochia (kochia [20]): 100 | Kochia plant response rating (kochia [20]): 80 | Plant response rating, Ducksalad (Flood) (ducksalad): 85 | Plant response rating, Horseweed (horseweed; [24]): 80 | Plant response rating, Horseweed (horseweed; [25]): 100 | Plant response rating, Wheat (wheat [21]; [24]): 50 | Plant response rating, Wheat (wheat [21]; [25]): 50 | Plant response rating, Oat, Wild (oat, wild [22]): 90 | Oat, Wild plant response rating (oat, wild [22]): 90 | Plant response rating, Pigweed, Palmer (pigweed, palmer [23]): 100 | Pigweed, Palmer plant response rating (pigweed, palmer [23]): 100
